Data: patent US7285564B2, “Substituted 4-amino-1-(pyridylmethyl)piperidine and related compounds” (Theravance, Inc., priority 2002, dated 2007)

Molecular target: T1, hM2 receptor (Homo sapiens, UniProt P08172)
T1 construct: expressed in transfected cells; membranes prepared
T1 sequence (P08172 1-466): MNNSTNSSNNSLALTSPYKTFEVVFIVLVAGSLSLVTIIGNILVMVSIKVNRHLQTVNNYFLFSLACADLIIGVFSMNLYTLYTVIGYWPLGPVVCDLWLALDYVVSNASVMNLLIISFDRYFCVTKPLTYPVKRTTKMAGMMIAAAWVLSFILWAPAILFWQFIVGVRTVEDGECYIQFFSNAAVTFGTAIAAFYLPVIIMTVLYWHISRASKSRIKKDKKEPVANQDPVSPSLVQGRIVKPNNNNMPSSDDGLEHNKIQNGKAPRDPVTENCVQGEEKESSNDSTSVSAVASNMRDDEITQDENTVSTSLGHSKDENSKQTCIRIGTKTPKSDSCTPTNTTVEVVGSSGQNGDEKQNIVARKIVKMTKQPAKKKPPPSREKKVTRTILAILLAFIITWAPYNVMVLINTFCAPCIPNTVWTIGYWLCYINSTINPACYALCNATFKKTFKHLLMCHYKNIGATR
Assay: Blockade of agonist-mediated GTPγ[35S] binding
Type: biochemical
Conditions: membranes of CHO-K1 cells expressing hM2; read-out: Ki for blockade of carbachol-mediated GTPγ[35S] binding
Procedure: In this assay, the functional potency of a test compound was determined by measuring the ability of the test compound to block carbachol-stimulated GTPγ[^35S] binding in CHO-K1 cells expressing the hM2 receptor.
CHO-K1 cells stably expressing the hM2 muscarinic receptor were grown in medium consisting of Hams F-12 media supplemented with 10% Fetal Bovine Serum and 500 μg/ml of Geneticin (G-418). Cells were incubated in a 5% CO2, humidified incubator at 37° C. Cells were grown to confluence and harvested with dPBS+2 mM EDTA and pelleted by centrifugation at 250×g for 10 minutes.
Cells from the centrifuged pellets were resuspended in homogenization buffer (10 mM HEPES, 10 mM EDTA, pH 7 at 4° C.). […]
To determine the ability of a test compound to inhibit carbachol-stimulated GTPγ[^35S] binding, the following was added to each well of 96 well plates: 25 μL of assay buffer with […] and GDP, 25 μL of diluted test compound (prepared as described above), and 25 μL CHO cell membranes expressing the hM2 receptor. […] After the pre-incubation period, 25 μL of carbachol at the final concentration of its EC90 value determined earlier in the day was added to each plate. […]
Test compound potency (IC50) was determined using iterative curve fitting (GraphPad Prism 3.0 software; single site competition curve). […]

Ki: < 1 nM
Compound: COc1ccncc1CN1CCC(N(CCCCCCCN2CC[C@@H](C(C(N)=O)(c3ccccc3)c3ccccc3)C2)C(C)C)CC1 [Example 1]
